Data from patent US8084621B2, “3-Pyrrolo[b]cyclohexylene-2-dihydroindolinone derivatives and uses thereof” (Jiangsu Simcere Pharmaceutical R&D Co. Ltd., priority 2006, dated 2011).

Molecular target: T1, c-Kit (Homo sapiens, UniProt P10721)
T1 construct: purchased Cell Signaling Technology CO
Test: Protein kinase activity by ELISA in vitro, c-Kit
Assay type: biochemical
Conditions: concentration of 10^−7 mol/L; read-out: kinase inhibition ratio, c-Kit
Text: (§1) An ELISA (Enzyme-Linked Immunosorbent Sandwich Assay) procedure may be used to detect and measure the level of protein tyrosine kinase activity. Tyrosine kinases such as VEGFR-2, PDGFR-β and c-Kit etc. catalyze the phosphorylation reaction of ATP and biotin-labeled peptide substrate, which will be ceased when the kinase activity is inhibited. According to the principle of ELISA, a monoclonal antibody can react with phosphorylated substrate specially, so biotin-labeled substrate is binded to streptavidin-coated ELISA plate, and then binded to a HRP-labeled goat anti-mouse antibody. Finally TMB is added for a color reaction and the value of A450-A630 is read by ELISA plate reader. The OD value can reflect the inhibitory activity of the VEGFR-2, PDGFR-β, c-Kit tyrosine kinases etc. treated with the test compounds at the different concentrations. So, the assay may be used to measure the inhibition ratio of the compounds for the tyrosine kinase activity. Similar assays can be designed along the same lines for any PK using techniques well known in the art.
as §1, with “Tyrosine” for “An ELISA (Enzyme-Linked Immunosorbent Sandwich Assay) procedure may be used to detect and measure the level of protein tyrosine kinase activity. Tyrosine”, “PDGFR-β” for “PDGFR-β,”, “kinases” for “kinases etc.”
VEGF Receptor 2, PDGF Receptor-beta and c-kit kinase assay kit (include kinase, 1.25M DTT, substrate peptide, 10 mM ATP, P-Tyr-100 Mouse antibody, 4×HTScan tyrosine kinase buffer), Cell Signaling Technology CO.; HRP labeled goat anti mouse IgG, Protein Tech CO.; TMB, Pierce CO.; Streptavidin Microtitration Plate, Greiner Bio-one CO.; Infinite M200 Reader, Tecan CO.
1.2.1 Immediately transfer enzyme from −80° C. to ice. Allow enzyme to thaw on ice then at 4° C. and centrifugate transiently to the bottom of centrifuge tube, then lay back on ice quickly
1.2.2 Add 10 μl of DTT (1.25 M) to 2.5 ml of 4×HTScan tyrosine kinase buffer (240 mM HEPES pH 7.5, 20 mM MgCl2, 20 mM MnCl2, 12 μM Na3VO4). Transfer 0.6 ml of DTT/Kinase buffer to each enzyme tube to make 4× reaction Cocktail. Incubate 12.5 μl of the 4× reaction cocktail with 12.5 μl/well prediluted compound of interest for 5 minutes at room temperature, and set blank control, free-enzyme control, negative control and positive control. 1.2.3 Add 10 μl 10 mM ATP to 1.25 ml 6 μM substrate peptide. Dilute the mixture with dH20 to 2.5 ml to make 2×ATP/substrate cocktail. Add 25 μl of 2×ATP/substrate cocktail to 25 μl/well preincubated reaction cocktail/compound. Incubate reaction plate at room temperature for 30 minutes. 1.2.4 Add 50 μl/well stop Buffer (50 mM EDTA, pH 8) to stop the reaction. Transfer 25 μl of each reaction and 75 μl dH2O/well to a 96-well streptavidin coated plate and incubate at room temperature for 60 minutes. Wash three times with 200 μl/well PBS/T(1×PBS, 0.05% Tween-20). 1.2.5 Dilute primary antibody, Phospho-Tyrosine mAb (P-Tyr-100), 1:500 in PBS/T with 1% BSA. Add 100 μl/well primary antibody. Incubate at room temperature for 60 minutes. Wash three times with 200 μl/well PBS/T(1×PBS, 0.05% Tween-20). 1.2.6 Prepare appropriate dilution of HRP labeled secondary antibody, 1:500 in PBS/T with 1% BSA. Add 100 μl/well secondary antibody solution. Incubate at room temperature for 30 minutes. […]

T1 sequence (P10721 26-976): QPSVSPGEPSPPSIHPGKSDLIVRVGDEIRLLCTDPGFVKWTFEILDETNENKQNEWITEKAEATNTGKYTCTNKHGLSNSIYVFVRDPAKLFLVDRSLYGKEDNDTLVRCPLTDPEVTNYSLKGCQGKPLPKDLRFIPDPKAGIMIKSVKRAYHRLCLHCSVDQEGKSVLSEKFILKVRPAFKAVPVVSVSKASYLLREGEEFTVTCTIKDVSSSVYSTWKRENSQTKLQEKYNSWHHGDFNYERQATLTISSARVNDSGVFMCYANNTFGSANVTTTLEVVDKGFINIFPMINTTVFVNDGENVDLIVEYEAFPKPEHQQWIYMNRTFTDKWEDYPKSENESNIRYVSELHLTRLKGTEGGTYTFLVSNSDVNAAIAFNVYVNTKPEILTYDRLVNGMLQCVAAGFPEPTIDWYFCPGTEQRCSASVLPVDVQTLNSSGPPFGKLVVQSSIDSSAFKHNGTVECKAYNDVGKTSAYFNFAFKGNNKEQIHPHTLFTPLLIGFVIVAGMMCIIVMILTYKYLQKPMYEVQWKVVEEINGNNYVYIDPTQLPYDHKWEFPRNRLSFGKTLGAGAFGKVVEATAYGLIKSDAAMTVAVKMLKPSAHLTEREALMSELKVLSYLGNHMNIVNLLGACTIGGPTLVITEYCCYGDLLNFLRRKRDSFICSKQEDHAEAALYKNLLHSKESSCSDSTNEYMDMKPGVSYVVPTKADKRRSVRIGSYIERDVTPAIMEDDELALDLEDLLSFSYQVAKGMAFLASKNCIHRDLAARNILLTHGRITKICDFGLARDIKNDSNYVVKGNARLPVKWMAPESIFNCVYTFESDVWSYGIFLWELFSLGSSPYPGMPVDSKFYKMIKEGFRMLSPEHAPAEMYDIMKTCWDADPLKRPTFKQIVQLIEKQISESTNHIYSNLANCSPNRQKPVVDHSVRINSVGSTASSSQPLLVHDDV

Row | Structure (SMILES) | inhibition at 0.1 µM
1 | Cc1[nH]c2c(c1C(=O)NCCCN(C)C)CCC/C2=C1/C(=O)Nc2ccc(Cl)cc21 [I-7, N-(3-(dimethylamino)propyl)-2-methyl-7-[1,2-dihydro-5-chloro-2-oxo-3H-indol-(Z)-3-ylidene]-4,5,6,7-tetrahydro-1H-indole-3-carboxamide] | 74%
2 | CCN(CC)CCNC(=O)c1c(C)[nH]c2c1CCC/C2=C1/C(=O)Nc2ccc(F)cc21 [I-2, N-(2-(diethylamino)ethyl)-2-methyl-7-[1,2-dihydro-5-fluoro-2-oxo-3H-indol-(Z)-3-ylidene]-4,5,6,7-tetrahydro-1H-indole-3-carboxamide] | 46%
3 | Cc1[nH]c2c(c1C(=O)NCC(O)CN1CCCC1)CCC/C2=C1/C(=O)Nc2ccccc21 (stereo not drawn) [I-70, N-(2-hydroxy-3-(pyrrolidin-1-yl)propyl)-2-methyl-7-[1,2-dihydro-2-oxo-3H-indol-(Z)-3-ylidene]-4,5,6,7-tetrahydro-1H-indole-3-carboxamide] | 76%
4 | CCN(CC)CCNC(=O)c1c(C)[nH]c2c1CCC/C2=C1/C(=O)Nc2ccc(Cl)cc21 [I-3, N-(2-(diethylamino)ethyl)-2-methyl-7-[1,2-dihydro-5-chloro-2-oxo-3H-indol-(Z)-3-ylidene]-4,5,6,7-tetrahydro-1H-indole-3-carboxamide] | 43%
5 | CCN(CC)CCNC(=O)c1c(C)[nH]c2c1CCC/C2=C1/C(=O)Nc2ccc(C)cc21 [I-4, N-(2-(diethylamino)ethyl)-2-methyl-7-[1,2-dihydro-5-methyl-2-oxo-3H-indol-(Z)-3-ylidene]-4,5,6,7-tetrahydro-1H-indole-3-carboxamide] | 60%
6 | Cc1[nH]c2c(c1C(=O)NCCN(C)C)CCC/C2=C1/C(=O)Nc2ccc(F)cc21 [I-6, N-(2-(dimethylamino)ethyl)-2-methyl-7-[1,2-dihydro-5-fluoro-2-oxo-3H-indol-(Z)-3-ylidene]-4,5,6,7-tetrahydro-1H-indole-3-carboxamide] | 77%

Further lines, results first:

Row | inhibition at 0.1 µM | Structure (SMILES)
7 | 77% | Cc1[nH]c2c(c1C(=O)NCCO)CCC/C2=C1/C(=O)Nc2ccccc21 [I-8, N-(2-hydroxyethyl)-2-methyl-7-[1,2-dihydro-2-oxo-3H-indol-(Z)-3-ylidene]-4,5,6,7-tetrahydro-1H-indole-3-carboxamide]
8 | 67% | CCN(CC)CCNC(=O)c1c(C)[nH]c2c1CCC/C2=C1/C(=O)Nc2ccccc21 [I-5, N-(2-(diethylamino)ethyl)-2-methyl-7-[1,2-dihydro-2-oxo-3H-indol-(Z)-3-ylidene]-4,5,6,7-tetrahydro-1H-indole-3-carboxamide]
9 | 73% | CCN(CC)CC(O)CNC(=O)c1c(C)[nH]c2c1CCC/C2=C1/C(=O)Nc2ccccc21 (stereo not drawn) [I-63, N-(3-(diethylamino)-2-hydroxypropyl)-2-methyl-7-[1,2-dihydro-2-oxo-3H-indol-(Z)-3-ylidene]-4,5,6,7-tetrahydro-1H-indole-3-carboxamide]
